Source: patent publication EP1125931A1, “Biocidal alkyl-substituted-(hetero)aryl-ketoxime-O-ethers and the production method thereof” (Hunan Research Institute of Chemical Industry, priority 2000, dated 2001)
Like-named read-outs stand apart in the source and are kept apart here.

Key:
[1] = test system: Mythimne separata; test: Test for the biological activity against Mythimne separata (spray, Petri dish with corn fragments); format: in vivo; conditions: after 24 hours
Procedure: Emulsion oil or wettable powder of the alkyl-substituted-(hetero)aryl-ketoxime-o-ether, intermediate ketone, or the active oxime compound of this invention prepared by the procedure described in the Examples for preparing a controlling agent in agriculture described above was diluted with water to prepare a solution of agricultural chemical having a certain concentration.
Ten heads of Mythimne separata and 5 pieces of corn fragments were placed in a Petri dish, and it was sprayed with a certain amount of agricultural chemical solution. After the exposure, it was kept in a room for normal cultivation. After 24 hours, number of live and dead insects were counted. Test was run 3 times, and results were averaged. […] Some compounds (I) [such as Code No. 5, 8, and 30] shown in Table 1] gave 100% lethal rate even when the concentration was lower than 500 ppm.

[2] = test system: aphids Aphis fabae; test: Test for the biological activity against aphids (seedling dip); format: in vivo; conditions: after 24 hours; for lethal rate: at a lower concentration (than 250 ppm); for aphids killed: concentration 250 ppm (content of effective component), average of 3 tests
Procedure: Emulsion oil or wettable powder of the alkyl-substituted-(heteroaryl-ketoxime-o-ether, ketone intermediate or active oxime compound of this invention prepared by the method described in the Example for preparing a controlling agent in agriculture was diluted with water to prepare a solution of agricultural chemical having a certain concentration. Aphids were inoculated in the new seedlings (more than 15). Then, the seedlings, together with the aphids, were dipped in the solution of agricultural agent for 5 seconds, removed, and excess liquid was drained. They were placed in a water-absorbing sponge, and held by glass rods. After 24 hours, the number of live and dead aphids was examined. Test was run 3 times, and the results were averaged. With a series of compound (I) [Code No. 5, 8, 21, 22, 23, 30, 33, 46, 47, 48], the aphids were killed 100% when the concentration was 250 ppm (calculated as the content of effective component). Some compounds (I) [Code No. 5, 8, and 30 in Table 1] gave 100% lethal rate with the aphids, even at a lower concentration.

[3] = test system: leafhopper Nephotetlix cimeticeps; test: Test for the biological activity against leafhopper (rice seedling dip); format: in vivo; conditions: after 24 hours; for kill rate: at a lower concentration (than 250 ppm); for leafhoppers killed: concentration 250 ppm (content of effective component), average of 3 tests
Procedure: Emulsion oil or wettable powder of the alkyl-substituted-(hetero)aryl-ketoxime-o-ether, ketone intermediate, or active oxime compound of this invention prepared by the method described in the Example for preparing a controlling agent in agriculture was diluted with water to prepare a solution of agricultural chemical having a certain concentration. Rice seedlings (second semester) were dipped in the solution of agricultural agent for 5 seconds, and then removed. It was drained and then placed in a large test tube. Each test tube contained 20 seedlings. Then, 20 leafhoppers (5th instar) were introduced in the tube, and the mouth of the tube was covered with a white cheesecloth. The tube was kept at room temperature, and number of live and dead leafhoppers was examined after 24 hours. Test was run 3 times, and results were averaged.

[4] = test system: fungal pathogens; test: Test for antifungal activity (mycelial growth on PDA media); format: cell-based; conditions: against one or more fungal pathogens; concentration 100 ppm; 72 hours of cultivation; read-out: growth inhibition rate
Procedure: Alkyl-substituted-(hetero)aryl-ketoxime-o-ether, ketone intermediate, or active oxime compound of this invention was diluted with an appropriate diluting agent (such as propanone) to prepare a parent solution having a certain concentration. One ml of this solution was taken with a pipette into 50 ml of molten PDA media. After shaking thoroughly, it was poured into two Petri dishes, to create duplicate. After cooling, a mycelial pad (diameter = about 4 mm) was taken and inoculated on the center of the culture dish. The diluting agent was used as the control. After inoculation, the dish was kept in an incubator set at an appropriate temperature. After 72 hours of cultivation, length (diameter of the colony) of the growth of mycelia was measured, and fungal growth inhibition rate was calculated.

[5] = test system: Spinach army worm; test: Biological activity (LC50) against spinach army worm; format: in vivo
[6] = test system: Spotted cutworm; test: Biological activity (LC50) against spotted cutworm; format: in vivo
[7] = test system: American tobacco cutworm; test: Biological activity (LC50) against American tobacco cutworm; format: in vivo
[8] = test system: Green peach aphid; test: Biological activity (LC50) against green peach aphid; format: in vivo
[9] = concentration 500 ppm (content of effective component), average of 3 tests
[10] = concentration lower than 500 ppm

For `CSC(C)C(=NOCc1cccc(Oc2ccccc2)c1)c1ccc(Cl)cc1` (stereo not shown) [Code No. 30, 1-(4-chlorophenyl)-2-methylthio-O-((3-phenoxyphenyl)methyl) 1-propanone oxime], the lethal rate [1, 9] was “exceeding 100%”, the lethal rate [1, 10] was 100% and the lethal rate [2] was 100%. For the same compound, the aphids killed [2] was 100%, the kill rate [3] was 100% and the leafhoppers killed [3] was 100%.

In the case of `CSCC(=NOCc1cccc(Oc2ccccc2)c1)c1ccc(Cl)cc1` [Code No. 5], the lethal rate [1, 9] is reported as “exceeding 100%”, the lethal rate [1, 10] is reported as 100% and the lethal rate [2] is reported as 100%. For the same compound, the aphids killed [2] was 100%, the kill rate [3] was 100% and the leafhoppers killed [3] was 100%.

Compound `CSCC(=NO)c1ccc(Cl)cc1` [compound (III) Code No. 5, 1-(4-chlorophenyl)-2-methylthio ethanone oxime] has an inhibition at 100 ppm [4] greater than 90%.

In the case of `CSCC(=NOCc1cccc(Oc2ccccc2)c1)c1ccc(Cl)cc1` [Code No. 5 E-form], the LC50 [5] is reported as “LC50 (ppm) < 5”, the LC50 [6] is reported as “LC50 (ppm) < 5” and the LC50 [7] is reported as “LC50 (ppm) < 10”. For the same compound, the LC50 [8] was “LC50 (ppm) > 100”.

With `CSC(C)C(=NOCc1cccc(Oc2ccccc2)c1)c1ccc(Cl)cc1` (stereo not shown) [Code No. 30 Z-form, 1-(4-chlorophenyl)-2-methylthio-O-((3-phenoxyphenyl)methyl) 1-propanone oxime] the LC50 ([5]; listed as 30 Z-form) was “LC50 (ppm) > 150”, the LC50 ([6]; listed as 30 Z-form) was “LC50 (ppm) > 150” and the LC50 ([7]; listed as 30 Z-form) was “LC50 (ppm) > 150”. The LC50 ([8]; listed as 30 Z-form) was “LC50 (ppm) > 150”.

In the case of `CSC(C)C(=NOCc1cccc(Oc2ccccc2)c1)c1ccc(Cl)cc1` (stereo not shown) [Code No. 30 E-form, 1-(4-chlorophenyl)-2-methylthio-O-((3-phenoxyphenyl)methyl) 1-propanone oxime], the LC50 ([5]; listed as 30 E-form) is reported as “LC50 (ppm) < 5”, the LC50 ([6]; listed as 30 E-form) is reported as “LC50 (ppm) < 1.5” and the LC50 ([7]; listed as 30 E-form) is reported as “LC50 (ppm) < 5”. The LC50 ([8]; listed as 30 E-form) was “LC50 (ppm) < 15”.
